Assay [1] has as its system Anti-BCMA CAR-expressing T cells. Kind of assay: ATAC-seq chromatin accessibility in stimulated anti-BCMA CAR T cells in the presence or absence of lenalidomide. The class given is cell-based. As for the experimental part: (§1) Anti-BCMA CAR-expressing T cells, generated from four (4) different independent donors, were stimulated with 50 μg/mL BCMA-conjugated beads for 24 hours (24 hr+stim) or 7 days (d7+stim), or cultured without stimulation for 24 hours (24 hr), in the presence or absence of lenalidomide. The CAR-expressing cells were assessed by RNA sequencing (RNA-seq) for gene expression and assayed for transposase-accessible chromatin using sequencing (ATAC-seq) for chromatin accessibility analysis.
(§2) RNA-seq was performed on the complementary DNA (cDNA) samples prepared from the RNA isolated from the cultured anti-BCMA CAR-expressing cells. ATAC-seq was performed generally as described in Buenrostro et al., Nat Methods. (2013) 10(12): 1213-1218. […]
(§3) Principal component analysis (PCA) was performed for the RNA-seq and ATAC-seq data sets, generated from DESeq2-normalized counts. Differential expression (DE, for RNA-seq) or consensus peak accessibility (DA, for ATAC-seq) were calculated, modeling donor effects (Donors 1-4) and treatment effects (lenalidomide vs. vehicle) at 24 hours and day 7. […] Gene ontology (GO) enrichment analysis was performed and activation z-score was determined on the subset of genes differentially expressed at q≤0.1 using Ingenuity Pathway Analysis software (Qiagen, Inc.), accounting for donor effects within each treatment condition.

For assay [2] the test system is unchanged. Kind of assay: RNA-seq gene expression in stimulated anti-BCMA CAR T cells in the presence or absence of lenalidomide. The class given is cell-based. How it is done: as §1, §2, §3

For `Nc1cccc2c1CN(C1CCC(=O)NC1=O)C2=O` (stereo not shown) [lenalidomide], the “chromatin accessibility peaks changed” value in assay [1] (7 days of culture with BCMA-conjugated bead stimulation, lenalidomide vs. vehicle, 4 donors, cut off q≤0.1) turned out to be 2804 peaks. Further, in assay [1] (day 7 cultures with stimulation, HOMER, consensus peakset as background), the “motif enrichment analysis of peaks (transcription factor binding motifs of T cell activation and signaling)” value was “enriched in peaks with increased accessibility”. For the same compound, the “effect on biological signaling pathways (differentially expressed genes)” value in assay [2] (24 hours or 7 days with stimulation, Ingenuity Pathway Analysis) is “increased expression of genes involved in T cell activation and signaling”. Moreover, the “total genes altered as shown by gene expression changes” value in assay [2] (7 days of culture with BCMA-conjugated bead stimulation, lenalidomide vs. vehicle, 4 donors, cut off q≤0.05 and log 2 fold change≥0.5) was 583 genes.
